Measurements as given in patent US20170152569A1, “POLYMORPHISM IN THE BCL2 GENE DETERMINES RESPONSE TO CHEMOTHERAPY” (HIDENSEQ, priority 2014, published 2017).

Assays:
[1] = test system: Uterine Corpus Endometrial carcinoma (UCEC); settings: of 83 UCEC patients, paclitaxel as first line; cited from earlier work
[2] = test system: Ovarian Cancer (OV); settings: paclitaxel as first line; cited from earlier work
[3] = test system: HeyA8 cells; assay: Bcl2 gradient assay: cell sensitivity to paclitaxel with increasing wt-BCL2-GFP doses; assay type: cell-based; settings: HeyA8 cells transfected with increased concentrations of BCL2 mRNA (5 doses of wt-BCL2-GFP); viability by FACS 24 hours after paclitaxel
Protocol: (§1) Propidium iodide (PI) was added to the cell suspension at a concentration of 1 μg/ml. Sorting and analyses were carried out in a Gallios flow cytometer cell sorter collecting 10,000 events. Dead cells were excluded by gating on forward and side scatter and by eliminating PI-positive events.
(§2) To examine the effect of rs1801018 variant on cells sensitivity to paclitaxel, GFP-empty vector control or one of three GFP-BCL2 variants (wild-type, rs1801018 variant or random) were over-expressed in cells, which then were tested with paclitaxel. Cells were incubated with increasing concentrations of paclitaxel as indicated in methods and in FIG. 3. […] To study the relationship between resistance to paclitaxel and BCL2 gene copy numbers, a Bcl2 gradient assay was performed. The assay is designed to examine cell sensitivity to paclitaxel in the presence of increasing levels of BCL2 copies. HeyA8 cells were transfected with 5 different doses of wt-BCL2-GFP. 24 hours post transfection cells were treated with paclitaxel, and 24 hours post incubation cells viability was measured by FACS.

[4] = test system: HeyA8 cells; assay: Sensitivity of transfected HeyA8 cells to paclitaxel (cell viability, PI/FACS); assay type: cell-based
Protocol: HeyA8 ovarian cell lines were grown at 37° C. with 5% CO2 in MEM-EAGLE medium supplement with 2 mM L-glutamine, 1.5 g/L sodium bicarbonate, 4.5 g/L glucose, 10 mM HEPES, 1.0 mM sodium pyruvate and 10% fetal bovine serum (FBS).
as §1
Cells expressing GFP-empty vector or one of three types of GFP-BCL2 variants were measured for their sensitivity to paclitaxel. Following 24 hours of transfection with one of the indicated plasmids, cells were introduced to 100 or 200 nM of paclitaxel for 24 hours incubation.
as §2

For `CC(=O)O[C@H]1C(=O)[C@@]2(C)[C@H]([C@H](OC(=O)c3ccccc3)[C@]3(O)C[C@H](OC(=O)[C@H](O)[C@@H](NC(=O)c4ccccc4)c4ccccc4)C(C)=C1C3(C)C)[C@]1(OC(C)=O)CO[C@@H]1C[C@@H]2O` [paclitaxel, (2α,4α,5β,7β,10β,13α)-4,10-Bis(acetyloxy)-13-{[(2R,3S)-3-(benzoylamino)-2-hydroxy-3-phenylpropanoyl]oxy}-1,7-dihydroxy-9-oxo-5,20-epoxytax-11-en-2-yl benzoate], the “patients who require multiple lines” value [1] is given as 20 patients, the “patients who responded to the first line of treatment” value [1] is given as 63 patients and the “patients who required additional lines of diverse chemotherapies” value [2] is given as 226 patients. For the same compound, the “patients who responded well to the first line of treatment” value [2] was 144 patients, the “relative cell death in response to paclitaxel” value [3] was “decrease in relative cell death” and the sensitivity to paclitaxel ([4]; HeyA8 cells harboring GFP-empty vector, 100 or 200 nM paclitaxel, 24 hours) was “high sensitivity”. For the same compound, the “cell viability in response to paclitaxel” value ([4]; HeyA8 cells transfected with rs1801018 variant (BCL2-Mut), p-value <0.05) was “significantly improved” and the “cell death / cell viability in response to paclitaxel” value ([4]; HeyA8 cells transfected with wild-type or random BCL2, 100 or 200 nM paclitaxel, 24 hours) was “reduced cell death”.
